How the values were obtained:
whole blood = test: Fibrin area coverage by fluorescence microscopy in collagen-coated tortuous microfluidic device perfused with whole blood; type: cell-based, human
Excerpt: A microfluidic device was then fabricated and mounted onto a microscope for visualization. The microfluidic device was also connected the to a syringe pump to introduce flow therethrough in a configuration similar, in at least some respects, to that of system 10 shown in FIG. 1. Blood first entered into a large reservoir (4.7 mm wide) and then flow split into four smaller parallel stenosed tortuous channels (200 μm wide); followed by convergence of the flow into an outlet similar to the inlet. The 4-channel design is partially analogous to a vessel network in vivo in which clots may form or detach locally, but the pressure still increases due to the systemic thrombosis. In addition, the total width and length of the device were designed to fit on a standard glass microscope slide for practical ease. Each device contains multiple single microchannel sections that were optimized to create maximum tortuosity (alternating 30° bends, corresponding to TI=3.4), to expose flowing whole blood to varying shear rates due to both stenosis and tortuosity, thus promoting rapid clot formation and occlusion. To enable more rapid cell activation and adhesion, the surface of the microchannels were further functionalized within the device with collagen type I, which is a commonly applied platelet agonist. The microfluidic device was operated at a flowrate of 70 μl/min, leading to a pre-stenosed mean wall shear rate of 1,200 reciprocal seconds (1/s) corresponding to typical arteriolar flow, and a wall shear gradient of 935 reciprocal second-millimeters (1/(s-m)) in the straight region following the pre-stenosed reservoir.
Referring to FIGS. 13, 14, re-calcified citrated whole blood was perfused through the microfluidic device for a maximum of 10 minutes at the 70 μl/min, less than 1 mL of blood was consumed, and the formation of various sized thrombi was detected throughout its entire length using fluorescence imaging 205, 207 shown in FIGS. 13, 14, respectively. […]

[1] = system: recalcified citrated whole blood; test: Pressure-sensor readout of clot formation and clotting time in tortuous microfluidic device perfused with recalcified citrated whole blood; type: cell-based, human; details: for clotting time (2.5× pressure increase from baseline): increasing concentration of heparin (0-1 IU/ml) or bivalirudin (0-75 ng/mL), FIGS. 20, 22
Excerpt: Even though microscopic analysis of real-time thrombus formation in the microfluidic device may be useful in labs, the microfluidic device may also be deployed and utilized at the point-of-care. In the interest of utilizing the microfluidic device at the point-of-care, the microfluidic device was connected to a syringe pump, a disposable pressure sensor, and a display monitor. Given that each of these components are already a part of most extracorporeal circuits, these components may be conveniently integrated in broad critical care settings. Additionally, using these components, clot formation may be automatically tracked in real-time by measuring changes in fluid pressure caused by increasing channel occlusion inside the device, as described above with respect to system 10.
It was found during testing of the microfluidic device that as recalcified citrated whole blood was perfused and formed clots inside the microfluidic device, pressure increases typical of the dynamics of clotting in blood vessel in vivo, or in an in vitro hollow channel, was seen, the pressure increases comprising three stages—a steady reaction time, a growth phase, and saturation. […] Next, a clotting time measurement was developed for these pressure readouts to serve as a quantitative end point in lab and clinical settings.
The experimental microfluidic described above was fabricated from PDMS soft lithography to a size that would fit on a standard (e.g., 75 mm×50 mm) microscope slide. The cured PDMS from the master mold was bonded to a […] PDMS-coated glass slide and punched with inlet and outlet 1.5 mm holes. Next, the device was coated with rat tail type I collagen at 100 μg/ml infused into the microfluidic device which was pre-treated with silane. The microfluidic device was incubated at 37° C. for three to four hours and washed with saline solution prior to blood perfusion. At the inlet side of the microfluidic device, a reservoir was created by force-fitting an open slip-tip syringe and fresh blood was stored therein. At the outlet, tubing was connected to an inline, disposable pressure sensor configured to determine pressure change across the microfluidic device. The other end of the pressure sensor was connected to a syringe pump which pulled the stored blood at a mean arteriole wall shear rate of 1200 1/s. Thrombus formation was observed using time-lapse imaging (10×, NA 0.35) of fluorescently labelled fibrinogen (15 μg/ml, Alexa Fluor 647, Invitrogen) and platelets (10 μl/ml Human CD41-PE (clone: VIPL3), Invitrogen) added directly to the blood and incubated at room temperature for approximately eight minutes for whole blood imaging. Fluorescence microscopy of fibrin and platelets was then performed at an interval of approximately 30 seconds.

Compound | fibrin area coverage (whole blood; bivalirudin 0-100 ng mL−1 added to whole blood, FIGS. 17, 18) | fibrin area coverage (whole blood; bivalirudin at 75 ng/ml in whole blood, FIGS. 17, 18) | blood flow pressure increase over time ([1]; bivalirudin 0-75 ng/mL added into blood, FIG. 21) | clotting time (2.5× pressure increase from baseline) [1] | blood flow pressure curve over time ([1]; increasing doses of tranexamic acid 0-4 mg/mi in whole blood, FIG. 25) | clotting time ([1]; increasing doses of tranexamic acid 0-4 mg/mi in whole blood, FIG. 26) | fibrin area coverage (whole blood; UFH 0-1 IU/mL added to whole blood, fluorescently labelled fibrin, FIGS. 15, 16) | blood flow pressure increase over time ([1]; heparin 0-1 IU/ml added into blood, relative to normal controls, FIG. 19)
bivalirudin | reduced fibrin | nearly complete clearance | a similar trend | clotting time decreased as concentration increased | – | – | – | –
NC[C@H]1CC[C@H](C(=O)O)CC1 [tranexamic acid] | – | – | – | – | relative shift in pressure curve to the left | decrease in clotting time | – | –
unfractionated heparin | – | – | – | clotting time decreased as concentration increased | – | – | decrease in fibrin area coverage | the pressure increase shifted relative to normal controls

— patent US20210354135A1, “SYSTEMS AND METHODS FOR EVALUATING AN ABILITY OF A BLOOD SAMPLE TO COAGULATE, CLOT, AND/OR OCCLUDE” (The Texas A&M University System, priority 2020, published 2021)
